The values below come from patent publication US11787817B2, “Albofungin and its derivatives specifically recognize HIV-1 LTR-III G-quadruplex” (The Hong Kong University of Science and Technology, priority 2021, dated 2023).

The test system of one series is HIV-1 LTR III G4. Kind of series: 1D 1H-NMR titration of HIV-1 LTR III G4 with compounds. The following applies: for binding affinity to LTR III G4 compared with albofungin / interaction / binding with LTR III G4: NMR titration; for interaction / binding with LTR III G4: result in words. The format is binding. As to the method: (§1) The single DNA nucleotides were purchased from Integrated DNA Technologies (IDT). The DNA sample at 100 μM (single strands) was then re-annealed by heating to 95° C. for 15 min, followed by slow cooling to room temperature overnight in an annealing buffer of 70 mM KCl and 20 mM potassium phosphate (pH 7.0). The final NMR samples contained 0.1 mM […] in 20 mM potassium phosphate buffer (pH 7.0) and 70 mM KCl.
(§2) To verify whether or not the compounds interact with G4 DNA, we performed NMR titration experiments by running one-dimensional (1D) ^1H NMR spectra at 25° C. All compounds were dissolved in isotope-labeled d6-DMSO (from Sigma-Aldrich) at about 50 mM concentration, working as stock solutions. To avoid chemical shift changes of G4 DNA resulted from d6-DMSO addition, 10 μL d6-DMSO was added into 500 μL of 0.1 mM G4 DNA solution in the NMR buffer (20 mM potassium phosphate buffer and 70 mM KCl, pH 7.0, 10% D2O) and then a 1D ^1H-NMR spectrum was recorded as a reference. During NMR titration experiments, each compound was added into G4 DNA solution, the maximal volume of 10 μL of each compound in d6-DMSO solution was thought as a final data point.

A further series relates to LTR-III G4. Kind of series: CD spectroscopy of LTR-III G4 with compound. More on the design: species or system HIV-1. Particulars: increasing compound concentration ratio, 25° C., 220-320 nm. The method, then: Circular dichroism (CD) spectra were recorded on Chirascan CD spectrometer at 25° C. from 220 nm to 320 nm under liquid mode; a 1 mm path-length quartz cuvette was used in the test.
Except for NMR titration and X-ray diffraction; Circular Dichroic (CD) spectroscopy is another frequently used method for G4 studies because it is very sensitive to observing slight changes in DNA conformation. (28) Due to its sensitivity, easy manipulation of studied samples, and relatively cheap, CD spectroscopy is regarded as a crucial complementary method in G4 studies; meanwhile, LTR-III G4's structure has only been resolved using NMR elucidation in K^+ solution, a typical hybrid conformation; and different G4 conformation has distinct CD spectra. So CD test was conducted to see if 477-albo will change the conformation of LTR-III G4.

The subject of the next series is HIV-1 U3 RNA G4. In words: 1D 1H-NMR titration of HIV-1 U3 RNA G4. Format: binding. Particulars: ratio 1:0.5, 1:1, 1:3 and 1:5. The method, then:
as §1
as §2, with “point. […]” for “point.”

Series [1] in a line: Solubility in the solvent system of the NMR titration. Particulars: in solution / solvent system at the test concentration. Format: physicochemical. The method, then:
as §2

In series [2] the test system is DNA and RNA G4s of LTR-III. Particulars: literature; cited from earlier work.
Another series has as its system Epstein-Barr viruses. The following applies: literature (15); cited from earlier work.
A further series relates to human telomeric G4s. Particulars: literature (32); cited from earlier work.
In another series the test system is HIV-1 LTR II G4. Kind of series: 1D 1H-NMR titration of HIV-1 LTR II G4. Format: binding. The following applies: ratio 1:0, 1:3 and 1:6; even at 1:6. The method, then:
as §1, §2
(§3) Since not only LTR III can form noncanonical G4, LTR II and LTR IV can also form mutually exclusive G4 structures (24). […]

In the next series the test system is HIV-1 LTR IV G4. In words: 1D 1H-NMR titration of HIV-1 LTR IV G4. The format is binding. Particulars: ratio 1:0, 1:3 and 1:6; even at 1:6. As to the method: as §1, §2, §3
Series [3] deals with human telomeric variant htel21_T18 G4. In words: 1D 1H-NMR titration of human telomeric htel21_T18 G-quadruplex. Format: binding. The following applies: concentration ratio 1:5. The method, then: as §1, §2
The LTR sequence and other G-rich DNA or RNA strands can form polymorphic G4s. For example, a chair-type conformation is adopted by a human telomeric variant, htel21_T18 (d[(GGGTTA)2GGGTTTGGG]) (SEQ ID NO: 1) (25). […]

In series [4] the test system is RRM1,2 domain of hnRNP A2. Kind of series: 1H-15N HSQC titration of RRM1,2 domain of hnRNP A2 with compound. Format: binding, human. The following applies: titrated at 1:10. As to the method: The coding sequence of the RRM domain of hnRNP A2 was inserted into the expression vector pET-28a(+) (Novagen). The protein was expressed in Escherichia coli BL21(DE3) at 37° C. for 5 h. Cell lysates were subject to affinity purification with the nickel-nitrilotriacetic acid resin (Qiagen) followed by the cleavage of the hexahistidine tag with the P3C enzyme. The resulting protein was further purified on a Superdex 75 column (GE Healthcare). For the NMR studies, the samples uniformly labeled with ^15N isotopes were expressed and purified as described above, except that the cells were grown in an M9 medium containing [^15N] ammonium chloride (Cambridge Isotopes) and D-glucose.
The titration experiments were performed by recording a series of 2D ^15N-HSQC spectra on uniformly ^15N-labeled RRM domain (˜0.1 mM) in the presence of different amounts of DNA ranging from 0 to 0.5 mM at 25° C. The protein sample and the stock solutions of DNA were all prepared in 20 mM potassium phosphate buffer and 70 mM KCl, pH 7.0, 10% D2O.
All compounds were dissolved in isotope-labeled d6-DMSO (from Sigma-Aldrich) at about 50 mM concentration, working as stock solutions. […]

The subject of series [5] is LTR III G4 / hnRNP A2 interaction. Kind of series: 1D 1H-NMR titration of LTR III G4/albofungin complex with RRM1,2 domain of hnRNP A2. Particulars: G4:albofungin 1:3; G4:albofungin:hnRNP A2 1:3:2. Format: binding. As to the method: as §2
LTR G4 region is under control of two nuclear proteins: nucleolin, which upon binding increases LTR G4 stability and thus silences transcription (26); the human ribonucleoprotein (hnRNP) A2/B1, which can unfold the LTR G4 efficiently and thus enhances HIV-1 transcription (27). To sum up, G4 binding proteins perform like a switch in the determination of G4's conformation to control viral transcription modulation. Therefore, the RRM domain of human ribonucleoprotein (hnRNP A2) was expressed and purified, and the NMR titration of LTR III G4 with the RRM domain of hnRNP A2 was performed. […]

Entries after “also recorded” stand apart in the source; their conditions may differ.

RRM1,2 domain of hnRNP A2, sequence (P22626 21-191): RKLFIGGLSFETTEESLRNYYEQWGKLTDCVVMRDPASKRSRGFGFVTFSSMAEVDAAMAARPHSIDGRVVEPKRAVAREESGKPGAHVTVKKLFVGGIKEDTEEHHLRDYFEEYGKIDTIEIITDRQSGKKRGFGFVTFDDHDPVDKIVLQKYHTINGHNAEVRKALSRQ

Regarding `COc1c2c(c(O)c3c(=O)c4c(oc13)[C@H](O)CC[C@@H]4O)-c1c(cc3cc(C)[nH]c(=O)c3c1O)CC2` [477-albo], in the series on HIV-1 LTR III G4, the “binding affinity to LTR III G4 compared with albofungin” value is “much weaker than albofungin” and the “interaction / binding with LTR III G4” value is given as “specific bind with LTR-III DNA G4; also recorded: bind to LTR III G4”. The “new imino shifts indicating conformation change of LTR III G4” value in the series with HIV-1 LTR III G4 (concentration ratio increased to 1:3, between 13 to 14 ppm and 9.5 to 10.5 ppm) was “several strange shifts”. Further, the “trend of chemical shift changes of LTR III G4 imino region on titration” value in the series on HIV-1 LTR III G4 (ratio 1:0 to 1:8) was “clear trend of chemical shifts changes”. Moreover, in the series on LTR-III G4, the “conformation change of LTR-III G4 in CD spectra” value was “noticeable conformation changes from a typical hybrid form into parallel form”. Also, the “binding to U3 RNA G4 (imino region of 1D 1H-NMR spectra)” value in the series with HIV-1 U3 RNA G4 is listed as “not U3 RNA G4; also recorded: did not change”. Besides, the solubility result in [1] is “better solubility”.
As for `COc1c2c(c(O)c3c(=O)c4c(oc13)[C@H](O)CC[C@@H]4O)-c1c(cc3cc(C)n(N)c(=O)c3c1O)CC2` [492-albo], in the series with HIV-1 LTR III G4, the “binding affinity to LTR III G4 compared with albofungin” value is given as “much weaker than albofungin” and the “interaction / binding with LTR III G4” value is on record as “bind to LTR III G4”.
The matching figures for `CO[C@@H]1CC[C@H](O)c2c1oc1c3c4c(c(O)c1c2=O)-c1c(cc2cc(C)[nH]c(=O)c2c1O)C[C@H]4OCO3` [505-albo]: “much weaker than albofungin” and “bind to LTR III G4”.
In the same order, the values of `Cc1cc2cc3c(c(O)c2c(=O)n1N)-c1c2c(c4oc5c(c(=O)c4c1O)[C@@H](O)[C@@H](O)CC5)OCO[C@@H]2C3` [506-1-albo] are “much weaker than albofungin” and “bind to LTR III G4”.
The matching figures for `Cc1cc2cc3c(c(O)c2c(=O)n1N)-c1c2c(c4oc5c(c(=O)c4c1O)[C@@H](O)CC[C@H]5O)OCO[C@@H]2C3` [506-2-albo]: “much weaker than albofungin” and “bind to LTR III G4”.
In the case of `CO[C@@H]1CC[C@H](O)c2c1oc1c3c4c(c(O)c1c2=O)-c1c(cc2cc(C)n(C)c(=O)c2c1O)C[C@H]4OCO3` [519-albo], in the series on HIV-1 LTR III G4, the “binding affinity to LTR III G4 compared with albofungin” value is “much weaker than albofungin” and the “interaction / binding with LTR III G4” value is “bind to LTR III G4”.
In the case of `CO[C@@H]1CC[C@H](O)c2c1oc1c3c4c(c(O)c1c2=O)-c1c(cc2cc(C)n(NC(C)=O)c(=O)c2c1O)C[C@H]4OCO3` [562-albo], in the series with HIV-1 LTR III G4, the “binding affinity to LTR III G4 compared with albofungin” value is “much weaker than albofungin” and the “interaction / binding with LTR III G4” value is on record as “bind to LTR III G4”.
On to `CN(C)c1ccc(Nc2c3ccc(NC(=O)CCN4CCCC4)cc3nc3cc(NC(=O)CCN4CCCC4)ccc23)cc1` [BRACO-19], for which, in series [2], the “binding to DNA and RNA G4s of LTR-III” value was “binds both DNA and RNA G4s of LTR-III”. The “activity against Epstein-Barr viruses” value in the series with Epstein-Barr viruses is “active against”. Also, the “activity against human telomeric G4s” value in the series with human telomeric G4s is given as “active against”.
On to `CO[C@@H]1CC[C@H](O)c2c1oc1c3c4c(c(O)c1c2=O)-c1c(cc2c(Cl)c(C)n(N)c(=O)c2c1O)C[C@H]4OCO3` [chloroalbofungin], for which the “interaction / binding with LTR III G4” value in the series on HIV-1 LTR III G4 was “poor binding affinity”.
Consider albofungin, for which the “chemical shift changes in the imino region of the 1D 1H-NMR spectrum of LTR III G4” value in the series on HIV-1 LTR III G4 (G4:compound concentration ratio 1:0.5, 25° C.) is on record as “significant chemical shift changes”. Moreover, in the series with HIV-1 LTR III G4, the “interaction / binding with LTR III G4” value is reported as “potent interaction”. In the series with HIV-1 LTR II G4, the “chemical shift changes of LTR II G4 1D 1H NMR spectra” value is “no significant chemical shift changes”. Moreover, the “chemical shift changes of LTR IV G4 1D 1H NMR spectra” value in the series on HIV-1 LTR IV G4 is recorded as “no significant chemical shift changes”. Moreover, the “chemical shift changes of htel21_T18 1D 1H NMR spectra” value in series [3] is “no chemical shift changes”. For the same molecule, in [4], the “binding to the RRM domain of hnRNP A2” value is recorded as “did not bind”. In addition, the “changes in imino region of LTR III G4/albofungin complex on adding RRM1,2 domain of hnRNP A2” value in series [5] is listed as “no changes in the profile of the imino region”. In series [1], the solubility result is recorded as “poor solubility”.
